Reference: ChEMBL document CHEMBL3045426, “Synthesis, Antiviral and Antibacterial Activities of Isatin Mannich Bases” (Med Chem Res, 2005)
Converted amounts (≈) assume the structure as drawn.

The compounds below were run on Vibrio cholerae (assay: Antimicrobial activity against Vibrio cholerae 01 after 18 to 20 hr by agar dilution method). Conditions: 1.
Format: functional
Compound `COc1c(N2CCNC(C)C2)c(F)cc2c(=O)c(C(=O)O)cn(C3CC3)c12` (centres undefined) [GATIFLOXACIN] has an MIC of 0.02 µg/mL (≈ 0.0533 µM).

These compounds were tested on Priestia megaterium (assay: Antimicrobial activity against Bacillus megaterium after 18 to 20 hr by agar dilution method). Conditions: not given.
Format: functional
For `COc1c(N2CCNC(C)C2)c(F)cc2c(=O)c(C(=O)O)cn(C3CC3)c12` (centres undefined) [GATIFLOXACIN], the MIC was 0.08 µg/mL (≈ 0.213 µM).

These compounds were tested on Enterobacter (assay: Antimicrobial activity against Enterobacter after 18 to 20 hr by agar dilution method). Conditions: not given.
Format: functional
Compound `COc1c(N2CCNC(C)C2)c(F)cc2c(=O)c(C(=O)O)cn(C3CC3)c12` (centres undefined) [GATIFLOXACIN] has an MIC of 0.02 µg/mL (≈ 0.0533 µM).

What follows are compounds tested on Citrobacter freundii (assay: Antimicrobial activity against Citrobacter freundii after 18 to 20 hr by agar dilution method). Conditions: not given.
Format: functional
`COc1c(N2CCNC(C)C2)c(F)cc2c(=O)c(C(=O)O)cn(C3CC3)c12` (centres undefined) [GATIFLOXACIN] showed an MIC of 0.08 µg/mL (≈ 0.213 µM).

The compounds below were run on Salmonella enteritidis (assay: Antimicrobial activity against Salmonella enterica subsp. enterica serovar Enteritidis after 18 to 20 hr by agar dilution method). Conditions: not given.
Format: functional
`COc1c(N2CCNC(C)C2)c(F)cc2c(=O)c(C(=O)O)cn(C3CC3)c12` (centres undefined) [GATIFLOXACIN] showed an MIC of 0.02 µg/mL (≈ 0.0533 µM).

Each compound was assayed on Salmonella typhimurium (assay: Antimicrobial activity against Salmonella enterica subsp. enterica serovar Typhimurium after 18 to 20 hr by agar dilution method). Conditions: not given.
Format: functional
Work on `COc1c(N2CCNC(C)C2)c(F)cc2c(=O)c(C(=O)O)cn(C3CC3)c12` (centres undefined) [GATIFLOXACIN] yielded an MIC of 0.02 µg/mL (≈ 0.0533 µM).

Each compound was assayed on Proteus mirabilis (assay: Antimicrobial activity against Proteus mirabilis after 18 to 20 hr by agar dilution method). Conditions: not given.
Format: functional
Compound `COc1c(N2CCNC(C)C2)c(F)cc2c(=O)c(C(=O)O)cn(C3CC3)c12` (centres undefined) [GATIFLOXACIN] has an MIC of 0.02 µg/mL (≈ 0.0533 µM).

Each compound was assayed on Proteus vulgaris (assay: Antimicrobial activity against Proteus vulgaris after 18 to 20 hr by agar dilution method). Conditions: not given.
Format: functional
`COc1c(N2CCNC(C)C2)c(F)cc2c(=O)c(C(=O)O)cn(C3CC3)c12` (centres undefined) [GATIFLOXACIN] gave an MIC of 0.02 µg/mL (≈ 0.0533 µM).

What follows are compounds tested on Edwardsiella tarda (assay: Antimicrobial activity against Edwardsiella tarda after 18 to 20 hr by agar dilution method). Conditions: not given.
Format: functional
`COc1c(N2CCNC(C)C2)c(F)cc2c(=O)c(C(=O)O)cn(C3CC3)c12` (centres undefined) [GATIFLOXACIN] showed an MIC of 0.02 µg/mL (≈ 0.0533 µM).

These compounds were tested on Escherichia coli (assay: Antimicrobial activity against Escherichia coli NCTC 10418 after 18 to 20 hr by agar dilution method). Conditions: not given.
Format: functional
Work on `COc1c(N2CCNC(C)C2)c(F)cc2c(=O)c(C(=O)O)cn(C3CC3)c12` (centres undefined) [GATIFLOXACIN] yielded an MIC of 0.02 µg/mL (≈ 0.0533 µM).

Each compound was assayed on Salmonella typhi (assay: Antimicrobial activity against Salmonella enterica subsp. enterica serovar Typhi after 18 to 20 hr by agar dilution method). Conditions: not given.
Format: functional
`COc1c(N2CCNC(C)C2)c(F)cc2c(=O)c(C(=O)O)cn(C3CC3)c12` (centres undefined) [GATIFLOXACIN] was tested, and the MIC was 0.02 µg/mL (≈ 0.0533 µM).

These compounds were tested on Salmonella paratyphi (assay: Antimicrobial activity against Salmonella enterica subsp. enterica serovar Paratyphi A after 18 to 20 hr by agar dilution method). Conditions: not given.
Format: functional
In the case of `COc1c(N2CCNC(C)C2)c(F)cc2c(=O)c(C(=O)O)cn(C3CC3)c12` (centres undefined) [GATIFLOXACIN], the MIC is reported as 0.02 µg/mL (≈ 0.0533 µM).

Each compound was assayed on Vibrio parahaemolyticus (assay: Antimicrobial activity against Vibrio parahaemolyticus after 18 to 20 hr by agar dilution method). Conditions: not given.
Format: functional
`COc1c(N2CCNC(C)C2)c(F)cc2c(=O)c(C(=O)O)cn(C3CC3)c12` (centres undefined) [GATIFLOXACIN] gave an MIC of 9.77 µg/mL (≈ 26 µM).

Each compound was assayed on Vibrio cholerae (assay: Antimicrobial activity against Vibrio cholerae 0139 after 18 to 20 hr by agar dilution method). Conditions: 139.
Format: functional
With `COc1c(N2CCNC(C)C2)c(F)cc2c(=O)c(C(=O)O)cn(C3CC3)c12` (centres undefined) [GATIFLOXACIN] the MIC was 0.02 µg/mL (≈ 0.0533 µM).

The compounds below were run on Vibrio fluvialis (assay: Antimicrobial activity against Vibrio fluvialis after 18 to 20 hr by agar dilution method). Conditions: not given.
Format: functional
With `COc1c(N2CCNC(C)C2)c(F)cc2c(=O)c(C(=O)O)cn(C3CC3)c12` (centres undefined) [GATIFLOXACIN] the MIC was 0.02 µg/mL (≈ 0.0533 µM).

The compounds below were run on Vibrio mimicus (assay: Antimicrobial activity against Vibrio mimicus after 18 to 20 hr by agar dilution method). Conditions: not given.
Format: functional
`COc1c(N2CCNC(C)C2)c(F)cc2c(=O)c(C(=O)O)cn(C3CC3)c12` (centres undefined) [GATIFLOXACIN] was tested, and the MIC was 0.15 µg/mL (≈ 0.4 µM).

The compounds below were run on Pseudomonas aeruginosa (assay: Antimicrobial activity against Pseudomonas aeruginosa after 18 to 20 hr by agar dilution method). Conditions: not given.
Format: functional
Work on `COc1c(N2CCNC(C)C2)c(F)cc2c(=O)c(C(=O)O)cn(C3CC3)c12` (centres undefined) [GATIFLOXACIN] yielded an MIC of 0.15 µg/mL (≈ 0.4 µM).

These compounds were tested on Staphylococcus aureus (assay: Antimicrobial activity against Staphylococcus aureus after 18 to 20 hr by agar dilution method). Conditions: not given.
Format: functional
For `COc1c(N2CCNC(C)C2)c(F)cc2c(=O)c(C(=O)O)cn(C3CC3)c12` (centres undefined) [GATIFLOXACIN], the MIC was 0.02 µg/mL (≈ 0.0533 µM).

The compounds below were run on Morganella morganii (assay: Antimicrobial activity against Morganella morganii after 18 to 20 hr by agar dilution method). Conditions: not given.
Format: functional
Work on `COc1c(N2CCNC(C)C2)c(F)cc2c(=O)c(C(=O)O)cn(C3CC3)c12` (centres undefined) [GATIFLOXACIN] yielded an MIC of 0.02 µg/mL (≈ 0.0533 µM).

The compounds below were run on Shigella boydii (assay: Antimicrobial activity against Shigella boydii after 18 to 20 hr by agar dilution method). Conditions: not given.
Format: functional
In the case of `COc1c(N2CCNC(C)C2)c(F)cc2c(=O)c(C(=O)O)cn(C3CC3)c12` (centres undefined) [GATIFLOXACIN], the MIC is reported as 1.22 µg/mL (≈ 3.25 µM).

These compounds were tested on Plesiomonas (assay: Antimicrobial activity against Plesiomonas after 18 to 20 hr by agar dilution method). Conditions: not given.
Format: functional
With `COc1c(N2CCNC(C)C2)c(F)cc2c(=O)c(C(=O)O)cn(C3CC3)c12` (centres undefined) [GATIFLOXACIN] the MIC was 2.44 µg/mL (≈ 6.5 µM).

What follows are compounds tested on Shigella sonnei (assay: Antimicrobial activity against Shigella sonnei after 18 to 20 hr by agar dilution method). Conditions: not given.
Format: functional
Work on `COc1c(N2CCNC(C)C2)c(F)cc2c(=O)c(C(=O)O)cn(C3CC3)c12` (centres undefined) [GATIFLOXACIN] yielded an MIC of 0.08 µg/mL (≈ 0.213 µM).

These compounds were tested on Klebsiella pneumoniae (assay: Antimicrobial activity against Klebsiella pneumoniae after 18 to 20 hr by agar dilution method). Conditions: not given.
Format: functional
With `COc1c(N2CCNC(C)C2)c(F)cc2c(=O)c(C(=O)O)cn(C3CC3)c12` (centres undefined) [GATIFLOXACIN] the MIC was 0.08 µg/mL (≈ 0.213 µM).

What follows are compounds tested on Klebsiella pneumoniae (assay: Antimicrobial activity against Klebsiella pneumoniae subsp. ozaenae after 18 to 20 hr by agar dilution method). Conditions: not given.
Format: functional
Compound `COc1c(N2CCNC(C)C2)c(F)cc2c(=O)c(C(=O)O)cn(C3CC3)c12` (centres undefined) [GATIFLOXACIN] has an MIC of 0.08 µg/mL (≈ 0.213 µM).
